According to PMC11604048, “Constrained TACC3 peptidomimetics for a non-canonical protein–protein interface elucidate allosteric communication in Aurora-A kinase” (Chemical Science, 2024):
Where two headings read alike, the source gives them in different places. Blank lines part the entries; values can stand above or below the compound they belong to. *1 amine or outer side, *2 acyl side, *3 side chain or, on linkers, in order; H or OH if unused. Where a SMILES comes first, the peptide text is derived from it. Bridges are numbered along the chain shown (N, C = ends). Maleimide(3,4-diyl) = O=C1NC(=O)C([*:2])=C1[*:1]

Molecular target: T1, Aurora-A122-403-C290A/C393A (Homo sapiens, UniProt O14965, C290A/C393A)
T1 construct: Human Aurora-A kinase domain 122-403 wild-type or C290A/ C393A mutant; His tag (pET30TEV vector) (N, cleaved yes); made in house; host or cells: E. coli RIL, co-expressed with lambda phosphatase (Aurora-A); tracer by solid phase synthesis
T1 sequence (O14965 122-403 C290A/C393A): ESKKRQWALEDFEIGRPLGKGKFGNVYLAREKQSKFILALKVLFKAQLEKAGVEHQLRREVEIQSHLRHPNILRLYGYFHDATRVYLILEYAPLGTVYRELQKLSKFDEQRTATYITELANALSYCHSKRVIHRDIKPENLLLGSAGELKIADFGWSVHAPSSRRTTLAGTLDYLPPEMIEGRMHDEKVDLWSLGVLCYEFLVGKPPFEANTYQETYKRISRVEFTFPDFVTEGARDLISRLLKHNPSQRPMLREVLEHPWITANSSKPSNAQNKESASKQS
Assay: Competition FA assay against FAM-Ahx-TACC3 522-536 tracer
Format: binding
Details: as E1, mean ± SD, n = 3
Method: Once completed, the mixtures were transferred into SPPS fritted reaction vessels and washed with H2O (5X, 10 mL, 2 min), DMF (5X, 5mL, 2 min) and DCM (5X, 5 mL, 2 min). The clean resins were dried under vacuum and the cyclic peptides cleaved from the resin following the general procedures described in previous sections. After Et2O precipitation, the crude materials were freeze-dried and redissolved in H2O/MeCN/TFA 90/10/0.1% v/v for preparative HPLC purification.
All disulfide peptide variants (ox) were produced in situ from their free-thiol solid precursors. For this, 2 mg of the pure peptide materials were dissolved in aqueous DMSO 33% v/v to a 10 mM concentration and were left open to air oxidation at room temperature overnight. […]
the peptides were employed for FA competition assays and IC50 evaluation without further additional […]
Fluorescence anisotropy (FA) assays – General information.
All assays were performed using 384-well plates(Greiner Bio-one, UK). […]
produced as described previously.11 All samples were prepared in 25 mM Tris,150 mM NaCl, 5 mM MgCl2, pH= 7.5, unless otherwise stated, and tested in triplicate using an EnVisionTM 2103 MultiLabel plate reader (PerkinElmer; Waltham, MA, USA).The parameters were set as follows: Excitation wavelength = 480 nm (30 nm bandwidth) and emission wavelength = 535 nm (30 nm bandwidth). Measured data were processed and analysed as previously described.12 Specifically, the perpendicular intensity (P) and parallel intensity (S) were subtracted by the control values and used for calculations of intensity and anisotropy using the following Equations 1, 2, 3, 4, and 5:
I= (2PG) + S Eq. (SI − 5)
r = (S − PG) Eq. (SI − 6)
L = r − r௠௜௡ Eq. (SI − 7)
y = (k + x + [FL]) − ඥ(k + x + [FL]2 − 4 ∗ x ∗ [FL]) Eq. (SI − 8)
y = r + r௠௜௡ − r௠௔௫ Eq. (SI − 9)
Where I = total intensity; P = perpendicular intensity; S = parallel intensity; G = instrument factor; r = anisotropy; Lb = ligand bound fraction; λ = change in intensity between bound and unbound states which […]
FA direct binding assays. […]
starting from 700 μM, diluted over 24 points in a 1/2 regime using the FAM-Ahx-labeled peptides at a final fixed concentration of 50 nM per well.
FA competition assays were performed using the same plates and buffer as described above, with the initial […]
14 points in a 1/2 regime. […]
after 4 h of incubation to enable appropriate sample equilibration. To prevent sample oxidation, when sulfhydryl peptides were analyzed DTT was added to the buffer (5 mM). In competition mode, the average anisotropy and the average standard deviation of the values derived from equation SI-6 were calculated and fit to a sigmoidal logistic model (equation SI-9) using Origin 2021. When using peptides for which full […]
For consistency, all the data […]
indicating the corresponding SD. […]

[1] = Table S3 (mal): maleimide-constrained species, WT value is an individual replica control assay, SD, read-out: IC50 (mal)
[2] = oxidised (disulfide) species made in situ from 10 mM stock in aqueous DMSO 33% v/v, air, overnight, WT control (+DMSO) given the same DMSO incubation, read-out: IC50 (ox)
[3] = free-sulfhydryl (reduced) species, DTT 5 mM in buffer, WT control (+DTT), read-out: IC50 (red)

SMILES: CC(=O)N[C@@H](CCC(=O)O)C(=O)N[C@H]1CSC2=C(SC[C@@H](C(=O)N[C@@H](CC(=O)O)C(=O)N3CCC[C@H]3C(=O)N[C@@H](C)C(=O)N[C@@H](CCC(=O)O)C(=O)N[C@H](C(=O)N[C@@H](CC(C)C)C(=O)NCC(=O)N[C@H](C(=O)NCC(=O)N[C@@H](C)C(N)=O)[C@@H](C)O)C(C)C)NC(=O)[C@H](Cc3ccccc3)NC(=O)[C@H](CO)NC1=O)C(=O)NC2=O [TACC3 522-536 E523C/R526C (mal)] (Ac-ECSFCDPAEVLGTGA-NH2; linker 2-5 via Maleimide(3,4-diyl))
- IC50 [1]: 376 ± 28 µM

SMILES: CC(=O)N[C@@H](CCC(=O)O)C(=O)N[C@H]1CSSC[C@@H](C(=O)N[C@@H](CC(=O)O)C(=O)N2CCC[C@H]2C(=O)N[C@@H](C)C(=O)N[C@@H](CCC(=O)O)C(=O)N[C@H](C(=O)N[C@@H](CC(C)C)C(=O)NCC(=O)N[C@H](C(=O)NCC(=O)N[C@@H](C)C(N)=O)[C@@H](C)O)C(C)C)NC(=O)[C@H](Cc2ccccc2)NC(=O)[C@H](CO)NC1=O [TACC3 522-536 E523C/R526C (ox)] (Ac-ECSFCDPAEVLGTGA-NH2; disulfide 2-5)
- IC50 [2]: ≥ 500 µM

SMILES: CC(=O)N[C@@H](CCC(=O)O)C(=O)N[C@@H](CS)C(=O)N[C@@H](CO)C(=O)N[C@@H](Cc1ccccc1)C(=O)N[C@@H](CS)C(=O)N[C@@H](CC(=O)O)C(=O)N1CCC[C@H]1C(=O)N[C@@H](C)C(=O)N[C@@H](CCC(=O)O)C(=O)N[C@H](C(=O)N[C@@H](CC(C)C)C(=O)NCC(=O)N[C@H](C(=O)NCC(=O)N[C@@H](C)C(N)=O)[C@@H](C)O)C(C)C [TACC3 522-536 E523C/R526C (red)] (Ac-ECSFCDPAEVLGTGA-NH2)
- IC50 [3]: ≥ 500 µM

SMILES: CC(=O)N[C@@H](CCC(=O)O)C(=O)N[C@@H](CCC(=O)O)C(=O)N[C@@H](CO)C(=O)N[C@@H](Cc1ccccc1)C(=O)N[C@@H](CCCNC(=N)N)C(=O)N[C@@H](CC(=O)O)C(=O)N1CCC[C@H]1C(=O)N[C@@H](C)C(=O)N[C@H]1CSC2=C(SC[C@@H](C(=O)N[C@H](C(=O)NCC(=O)N[C@@H](C)C(N)=O)[C@@H](C)O)NC(=O)[C@H](CC(C)C)NC(=O)[C@H](C(C)C)NC1=O)C(=O)NC2=O [TACC3 522-536 E530C/G533C (mal)] (Ac-EESFRDPACVLCTGA-NH2; linker 9-12 via Maleimide(3,4-diyl))
- IC50 [1]: 223 ± 17 µM

SMILES: CC(=O)N[C@@H](CCC(=O)O)C(=O)N[C@@H](CCC(=O)O)C(=O)N[C@@H](CO)C(=O)N[C@@H](Cc1ccccc1)C(=O)N[C@@H](CCCNC(=N)N)C(=O)N[C@@H](CC(=O)O)C(=O)N1CCC[C@H]1C(=O)N[C@@H](C)C(=O)N[C@H]1CSSC[C@@H](C(=O)N[C@H](C(=O)NCC(=O)N[C@@H](C)C(N)=O)[C@@H](C)O)NC(=O)[C@H](CC(C)C)NC(=O)[C@H](C(C)C)NC1=O [TACC3 522-536 E530C/G533C (ox)] (Ac-EESFRDPACVLCTGA-NH2; disulfide 9-12)
- IC50 [2]: ≥ 500 µM

SMILES: CC(=O)N[C@@H](CCC(=O)O)C(=O)N[C@@H](CCC(=O)O)C(=O)N[C@@H](CO)C(=O)N[C@@H](Cc1ccccc1)C(=O)N[C@@H](CCCNC(=N)N)C(=O)N[C@@H](CC(=O)O)C(=O)N1CCC[C@H]1C(=O)N[C@@H](C)C(=O)N[C@@H](CS)C(=O)N[C@H](C(=O)N[C@@H](CC(C)C)C(=O)N[C@@H](CS)C(=O)N[C@H](C(=O)NCC(=O)N[C@@H](C)C(N)=O)[C@@H](C)O)C(C)C [TACC3 522-536 E530C/G533C (red)] (Ac-EESFRDPACVLCTGA-NH2)
- IC50 [3]: ≥ 500 µM

SMILES: CC(=O)N[C@@H](CCC(=O)O)C(=O)N[C@@H](CCC(=O)O)C(=O)N[C@@H](CO)C(=O)N[C@H]1CSC2=C(SC[C@@H](C(=O)N[C@@H](C)C(=O)N[C@@H](CCC(=O)O)C(=O)N[C@H](C(=O)N[C@@H](CC(C)C)C(=O)NCC(=O)N[C@H](C(=O)NCC(=O)N[C@@H](C)C(N)=O)[C@@H](C)O)C(C)C)NC(=O)[C@H](CC(=O)O)NC(=O)[C@H](CCCNC(=N)N)NC1=O)C(=O)NC2=O [TACC3 522-536 F525C/P528C (mal)] (Ac-EESCRDCAEVLGTGA-NH2; linker 4-7 via Maleimide(3,4-diyl))
- IC50 [1]: 244 ± 28 µM

The next lines start with the values.

- IC50 [2]: ≥ 500 µM
SMILES: CC(=O)N[C@@H](CCC(=O)O)C(=O)N[C@@H](CCC(=O)O)C(=O)N[C@@H](CO)C(=O)N[C@H]1CSSC[C@@H](C(=O)N[C@@H](C)C(=O)N[C@@H](CCC(=O)O)C(=O)N[C@H](C(=O)N[C@@H](CC(C)C)C(=O)NCC(=O)N[C@H](C(=O)NCC(=O)N[C@@H](C)C(N)=O)[C@@H](C)O)C(C)C)NC(=O)[C@H](CC(=O)O)NC(=O)[C@H](CCCNC(=N)N)NC1=O [TACC3 522-536 F525C/P528C (ox)] (Ac-EESCRDCAEVLGTGA-NH2; disulfide 4-7)

- IC50 [3]: ≥ 500 µM
SMILES: CC(=O)N[C@@H](CCC(=O)O)C(=O)N[C@@H](CCC(=O)O)C(=O)N[C@@H](CO)C(=O)N[C@@H](CS)C(=O)N[C@@H](CCCNC(=N)N)C(=O)N[C@@H](CC(=O)O)C(=O)N[C@@H](CS)C(=O)N[C@@H](C)C(=O)N[C@@H](CCC(=O)O)C(=O)N[C@H](C(=O)N[C@@H](CC(C)C)C(=O)NCC(=O)N[C@H](C(=O)NCC(=O)N[C@@H](C)C(N)=O)[C@@H](C)O)C(C)C [TACC3 522-536 F525C/P528C (red)] (Ac-EESCRDCAEVLGTGA-NH2)

- IC50 (Table S3 (mal): maleimide-constrained species, WT value is an individual replica control assay, read-out: IC50 (mal)): ≥ 500 µM
SMILES: CC(=O)N[C@@H](CCC(=O)O)C(=O)N[C@@H](CCC(=O)O)C(=O)N[C@@H](CO)C(=O)N[C@@H](Cc1ccccc1)C(=O)N[C@@H](CCCNC(=N)N)C(=O)N[C@@H](CC(=O)O)C(=O)N1CCC[C@H]1C(=O)N[C@@H](C)C(=O)N[C@@H](CCC(=O)O)C(=O)N[C@H](C(=O)N[C@@H](CC(C)C)C(=O)N[C@H]1CSC2=C(SC[C@@H](C(N)=O)NC(=O)CNC(=O)[C@H]([C@@H](C)O)NC1=O)C(=O)NC2=O)C(C)C [TACC3 522-536 G533C/A536C (mal)] (Ac-EESFRDPAEVLCTGC-NH2; linker 12-15 via Maleimide(3,4-diyl))

- IC50 [2]: ≥ 500 µM
SMILES: CC(=O)N[C@@H](CCC(=O)O)C(=O)N[C@@H](CCC(=O)O)C(=O)N[C@@H](CO)C(=O)N[C@@H](Cc1ccccc1)C(=O)N[C@@H](CCCNC(=N)N)C(=O)N[C@@H](CC(=O)O)C(=O)N1CCC[C@H]1C(=O)N[C@@H](C)C(=O)N[C@@H](CCC(=O)O)C(=O)N[C@H](C(=O)N[C@@H](CC(C)C)C(=O)N[C@H]1CSSC[C@@H](C(N)=O)NC(=O)CNC(=O)[C@H]([C@@H](C)O)NC1=O)C(C)C [TACC3 522-536 G533C/A536C (ox)] (Ac-EESFRDPAEVLCTGC-NH2; disulfide 12-15)

- IC50 (free-sulfhydryl (reduced) species, DTT 5 mM in buffer, WT control (+DTT), SD, read-out: IC50 (red)): 80 ± 3 µM
SMILES: CC(=O)N[C@@H](CCC(=O)O)C(=O)N[C@@H](CCC(=O)O)C(=O)N[C@@H](CO)C(=O)N[C@@H](Cc1ccccc1)C(=O)N[C@@H](CCCNC(=N)N)C(=O)N[C@@H](CC(=O)O)C(=O)N1CCC[C@H]1C(=O)N[C@@H](C)C(=O)N[C@@H](CCC(=O)O)C(=O)N[C@H](C(=O)N[C@@H](CC(C)C)C(=O)N[C@@H](CS)C(=O)N[C@H](C(=O)NCC(=O)N[C@@H](CS)C(N)=O)[C@@H](C)O)C(C)C [TACC3 522-536 G533C/A536C (red)] (Ac-EESFRDPAEVLCTGC-NH2)
